{"source": "patent US20140162875A1", "about": "“N-Thio-Anthranilamide Compounds and Their Use as Pesticides” (BASF SE, priority 2011, published 2014)", "format_in_all_cases": "in vivo", "key": {"[1]": {"system": "Mediterranean fruitfly (Ceratitis capitata)", "test": "Mediterranean fruitfly microtiter plate insect diet test", "details": "120 h, egg and larval mortality after 5 days, read-out: mortality in comparison with untreated controls", "description": "For evaluating control of Mediterranean fruitfly (Ceratitis capitata) the test unit consisted of microtiter plates containing an insect diet and 50-80 C. capitata eggs.\n(§1) The compounds were formulated using a solution containing 75% v/v water and 25% v/v DMSO. Different concentrations of formulated compounds were sprayed onto the insect diet at 5 μl, using a custom built micro atomizer, at two replications.\nAfter application, microtiter plates were incubated at about 28±1° C. and about 80±5% relative humidity for 5 days. Egg and larval mortality was then visually assessed."}, "[2]": {"system": "Tobacco Budworm (Heliothis Virescens)", "test": "Tobacco budworm cotton plant spray test", "details": "96 h, larvae on sprayed cotton plants, 4 days after treatment, read-out: mortality in comparison with untreated controls", "description": "(§2) The active compounds were formulated in cyclohexanone as a 10,000 ppm solution supplied in tubes. The tubes were inserted into an automated electrostatic sprayer equipped with an atomizing nozzle and they served as stock solutions for which lower dilutions were made in 50% acetone:50% water (v/v). A nonionic surfactant (Kinetic®) was included in the solution at a volume of 0.01% (v/v).\nCotton plants were grown 2 plants to a pot and selected for treatment at the cotyledon stage. Test solutions were sprayed onto the foliage by an automated electrostatic plant sprayer equipped with an atomizing spray nozzle. The plants were dried in the sprayer fume hood and then removed from the sprayer. Each pot was placed into perforated plastic bags with a zip closure. About 10 to 11 budworm larvae were placed into the bag and the bags zipped closed. Test plants were maintained in a growth room at about 25° C. and about 20-40% relative humidity for 4 days, avoiding direct exposure to fluorescent light (24 hour photoperiod) to prevent trapping of heat inside the bags. Mortality and reduced feeding were assessed 4 days after treatment, compared to untreated control plants."}, "[3]": {"system": "boll weevil (Anthonomus grandis)", "test": "Boll weevil microtiter plate insect diet test", "details": "120 h, egg and larval mortality after 5 days, read-out: mortality in comparison with untreated controls", "description": "For evaluating control of boll weevil (Anthonomus grandis) the test unit consisted of 96-well-microtiter plates containing an insect diet and 5-10 A. grandis eggs.\nas §1\nAfter application, microtiter plates were incubated at about 25±1° C. and about 75±5% relative humidity for 5 days. Egg and larval mortality was then visually assessed."}, "[4]": {"system": "vetch aphid (Megoura viciae)", "test": "Vetch aphid broad bean leaf disk microtiter test", "details": "foliar, 120 h, adult aphids on broad bean leaf disks, 5 days, read-out: mortality in comparison with untreated controls", "description": "For evaluating control of vetch aphid (Megoura viciae) through contact or systemic means the test unit consisted of 24-well-microtiter plates containing broad bean leaf disks.\nThe compounds were formulated using a solution containing 75% v/v water and 25% v/v DMSO. Different concentrations of formulated compounds were sprayed onto the leaf disks at 2.5 μl, using a custom built micro atomizer, at two replications.\nAfter application, the leaf disks were air-dried and 5-8 adult aphids placed on the leaf disks inside the microtiter plate wells. The aphids were then allowed to suck on the treated leaf disks and incubated at about 23±1° C. and about 50±5% relative humidity for 5 days. Aphid mortality and fecundity was then visually assessed."}, "[5]": {"system": "Diamond Back Moth (Plutella Xylostella)", "test": "Diamond back moth cabbage leaf dip test", "details": "foliar, dipped cabbage leaves, 3rd instar larvae, 72 hours after treatment, read-out: mortality in comparison with untreated controls", "description": "(§3) The active compound was dissolved at the desired concentration in a mixture of 1:1 (vol:vol) distilled water:acetone. Surfactant (Alkamuls® EL 620) is added at a rate of 0.1% (vol/vol). The test solution was prepared at the day of use.\nLeaves of cabbage were dipped in test solution and air-dried. Treated leaves were placed in petri dishes lined with moist filter paper and inoculated with ten 3rd instar larvae. Mortality was recorded 72 hours after treatment. Feeding damages were also recorded using a scale of 0-100%."}, "[6]": {"system": "Southern Armyworm (Spodoptera Eridania)", "test": "Southern armyworm lima bean plant spray test", "details": "96 h, larvae on sprayed lima bean plants, 4 days after treatment, read-out: mortality in comparison with untreated controls", "description": "as §2\nLima bean plants (variety Sieva) were grown 2 plants to a pot and selected for treatment at the 1st true leaf stage. Test solutions were sprayed onto the foliage by an automated electrostatic plant sprayer equipped with an atomizing spray nozzle. The plants were dried in the sprayer fume hood and then removed from the sprayer. Each pot was placed into perforated plastic bags with a zip closure. About 10 to 11 armyworm larvae were placed into the bag and the bags zipped closed. Test plants were maintained in a growth room at about 25° C. and about 20-40% relative humidity for 4 days, avoiding direct exposure to fluorescent light (24 hour photoperiod) to prevent trapping of heat inside the bags. Mortality and reduced feeding were assessed 4 days after treatment, compared to untreated control plants."}, "[7]": {"system": "Cowpea Aphid (Aphis Craccivora)", "test": "Cowpea aphid spray test on potted cowpea plants", "details": "sprayed cowpea plants, assessed after 72 hours, read-out: mortality in comparison with untreated controls", "description": "as §3\nPotted cowpea plants were colonized with approximately 50-100 aphids of various stages by manually transferring a leaf tissue cut from infested plant 24 hours before application. Plants were sprayed after the pest population has been recorded. Treated plants were maintained on light carts at about 28° C. Percent mortality was assessed after 72 hours."}, "[8]": {"system": "Colorado Potato Beetle (Leptinotarsa Decemlineata)", "test": "Colorado potato beetle eggplant foliage spray test", "details": "foliar, 96 h, beetle larvae on sprayed eggplant foliage, 4 days after treatment, read-out: mortality in comparison with untreated controls", "description": "as §2\nEggplants were grown 2 plants to a pot and were selected for treatment at the 1st true leaf stage. Test solutions were sprayed onto the foliage by an automated electrostatic plant sprayer equipped with an atomizing spray nozzle. The plants were dried in the sprayer fume hood and then removed from the sprayer. The treated foliage was then cut and removed from the pot and placed in a Petri dish lined with moistened filter paper. Five beetle larvae were introduced into each Petri dish and the dish was covered by a Petri dish lid. Petri dishes were maintained in a growth room at about 25° C. and about 20-40% relative humidity for 4 days, avoiding direct exposure to fluorescent light (24 hour photoperiod) to prevent trapping of heat inside the dishes. Mortality and reduced feeding were assessed 4 days after treatment, compared to untreated control plants."}, "[9]": {"system": "Orchid Thrips (Dichromothrips Corbetti)", "test": "Orchid thrips floral-immersion test", "details": "adult thrips on dipped orchid flowers, 72 hours after treatment, read-out: mortality in comparison with untreated controls", "description": "Dichromothrips corbetti adults used for bioassay are obtained from a colony maintained continuously under laboratory conditions. For testing purposes, the test compound was diluted in a 1:1 mixture of acetone:water (vol:vol), plus 0.01% vol/vol Alkamuls® EL 620 surfactant.\nThrips potency of each compound was evaluated by using a floral-immersion technique. Plastic petri dishes were used as test arenas. All petals of individual, intact orchid flowers are dipped into treatment solution and allowed to dry. Treated flowers were placed into individual petri dishes along with −about 20 adult thrips. The petri dishes were then covered with lids. All test arenas were held under continuous light and a temperature of about 28° C. for duration of the assay. After 3 days, the numbers of live thrips were counted on each flower, and along inner walls of each petri dish. The percent mortality was recorded 72 hours after treatment."}, "[10]": {"system": "Silverleaf Whitefly (Bemisia Argentifolii)", "test": "Silverleaf whitefly cotton plant spray test", "details": "300 ppm; whitefly adults on sprayed cotton plants; 3 days after treatment", "excerpt": "as §2\nCotton plants at the cotyledon stage (one plant per pot) were sprayed by an automated electrostatic plant sprayer equipped with an atomizing spray nozzle. The plants were dried in the sprayer fume hood and then removed from the sprayer. Each pot was placed into a plastic cup and about 10 to 12 whitefly adults (approximately 3-5 days old) were introduced. The insects were collected using an aspirator and a nontoxic Tygon® tubing connected to a barrier pipette tip. The tip, containing the collected insects, was then gently inserted into the soil containing the treated plant, allowing insects to crawl out of the tip to reach the foliage for feeding. Cups were covered with a reusable screened lid. Test plants were maintained in a growth room at about 25° C. and about 20-40% relative humidity for 3 days, avoiding direct exposure to fluorescent light (24 hour photoperiod) to prevent trapping of heat inside the cup. Mortality was assessed 3 days after treatment, compared to untreated control plants."}}}
{"smiles": "Cc1cc(Cl)cc(C(=O)/N=S2/CCSC2)c1NC(=O)c1cnn(CC(F)(F)F)c1-c1ncccc1Cl", "note": "(stereo not shown) [Compound 1-1, N-[4-chloro-2-((Z)-1,3-dithiolan-1-ylidenecarbamoyl)-6-methyl-phenyl]-5-(3-chloro-2-pyridyl)-1-(2,2,2-trifluoroethyl)pyrazole-4-carboxamide]", "values": [{"measurement": "mortality at 2500 ppm", "setting": "[1]", "result": "≥ 75", "unit": "%"}, {"measurement": "mortality at 2500 ppm", "setting": "[2]", "result": "≥ 75", "unit": "%"}, {"measurement": "mortality at 2500 ppm", "setting": "[3]", "result": "≥ 75", "unit": "%"}, {"measurement": "mortality at 2500 ppm", "setting": "[4]", "result": "≥ 75", "unit": "%"}, {"measurement": "mortality at 300 ppm", "setting": "[5]", "result": "≥ 75", "unit": "%"}, {"measurement": "mortality at 300 ppm", "setting": "[6]", "result": "≥ 75", "unit": "%"}, {"measurement": "mortality at 300 ppm", "setting": "[7]", "result": "≥ 75", "unit": "%"}, {"measurement": "mortality at 300 ppm", "setting": "[8]", "result": "≥ 75", "unit": "%"}, {"measurement": "mortality at 300 ppm", "setting": "[9]", "result": "≥ 75", "unit": "%"}]}
{"smiles": "Cc1cc(Cl)cc(C(=O)N=S(C(C)C)C(C)C)c1NC(=O)c1cnn(CC(F)(F)F)c1-c1ncccc1Cl", "note": "[Compound 1-2]", "values": [{"measurement": "mortality in comparison with untreated controls", "setting": "[10]", "result": "at least 75%"}]}
